In article PMC5218480 (PLoS ONE, 2017):

System: MV-4-11 cells
Experiment: Gene expression microarray analysis (Affymetrix PrimeView) and GSEA
Type: cell-based, human
Design: RFU PODN (11730768_x_at) / Fold change /veh PODN (11730768_x_at) / RFU LINC00158 (11744669_a_at) / Fold change /veh LINC00158 (11744669_a_at) / RFU DUSP10 (11751237_a_at) / Fold change /veh DUSP10 (11751237_a_at) / RFU ID3 (11757404_x_at) / Fold change /veh ID3 (11757404_x_at) / RFU PLEKHG5 (11737974_s_at) / Fold change /veh PLEKHG5 (11737974_s_at) / RFU LRRC4B (11730491_at) / Fold change /veh LRRC4B (11730491_at) / RFU GIMAP4 (11747438_a_at) / Fold change /veh GIMAP4 (11747438_a_at) / RFU KRT8 (11758183_x_at) / Fold change /veh KRT8 (11758183_x_at) / RFU CNN1 (11734310_a_at) / Fold change /veh CNN1 (11734310_a_at) / RFU VPS37D (11726825_at) / Fold change /veh VPS37D (11726825_at) / RFU C10orf10 (11716522_x_at) / Fold change /veh C10orf10 (11716522_x_at) / RFU KIR2DL2 /// KIR2DL4 /// KIR2DL5A /// KIR2DL5B /// KIR2DS1 /// KIR2DS2 /// KIR2DS3 /// KIR2DS4 /// KIR3DL3 /// KIR3DL3 /// KIR3DS1 (11738374_at) / Fold change /veh KIR2DL2 /// KIR2DL4 /// KIR2DL5A /// KIR2DL5B /// KIR2DS1 /// KIR2DS2 /// KIR2DS3 /// KIR2DS4 /// KIR3DL3 /// KIR3DL3 /// KIR3DS1 (11738374_at) / RFU C1QL1 (11718748_at) / Fold change /veh C1QL1 (11718748_at) / RFU TMPRSS4 (11747572_a_at) / Fold change /veh TMPRSS4 (11747572_a_at) / RFU HAMP (11756126_x_at) / Fold change /veh HAMP (11756126_x_at) / RFU RNFT2 (11725882_a_at) / Fold change /veh RNFT2 (11725882_a_at) / RFU NR4A2 (11747474_a_at) / Fold change /veh NR4A2 (11747474_a_at) / RFU ABCC12 (11746883_a_at) / Fold change /veh ABCC12 (11746883_a_at) / RFU TMEM136 (11760407_x_at) / Fold change /veh TMEM136 (11760407_x_at) / RFU CLDN22 /// WWC2 (11732394_at) / Fold change /veh CLDN22 /// WWC2 (11732394_at) / RFU HLA-DPB1 (11760878_x_at) / Fold change /veh HLA-DPB1 (11760878_x_at) / RFU SPINT1 (11716480_a_at) / Fold change /veh SPINT1 (11716480_a_at) / RFU GAP43 (11754022_s_at) / Fold change /veh GAP43 (11754022_s_at) / RFU A4GNT (11735810_at) / Fold change /veh A4GNT (11735810_at) / RFU PRB3 (11715151_x_at) / Fold change /veh PRB3 (11715151_x_at) / RFU TUBB4B (11761932_at) / Fold change /veh TUBB4B (11761932_at) / RFU CAPN14 (11732068_a_at) / Fold change /veh CAPN14 (11732068_a_at) / RFU TMCC2 (11721928_a_at) / Fold change /veh TMCC2 (11721928_a_at) / RFU IRGQ (11745062_a_at) / Fold change /veh IRGQ (11745062_a_at) / RFU FAM174B (11720279_a_at) / Fold change /veh FAM174B (11720279_a_at) / RFU TMPRSS4 (11748680_a_at) / Fold change /veh TMPRSS4 (11748680_a_at) / RFU FAM212B (11763350_a_at) / Fold change /veh FAM212B (11763350_a_at) / RFU PLEKHG5 (11743358_a_at) / Fold change /veh PLEKHG5 (11743358_a_at) / RFU ZSCAN30 (11745921_a_at) / Fold change /veh ZSCAN30 (11745921_a_at) / RFU CMKLR1 (11741424_a_at) / Fold change /veh CMKLR1 (11741424_a_at) / RFU LOC101060620 /// MAPK8IP1 (11723275_at) / Fold change /veh LOC101060620 /// MAPK8IP1 (11723275_at) / RFU SPTSSB (11747773_x_at) / Fold change /veh SPTSSB (11747773_x_at) / RFU PRSS12 (11739890_at) / Fold change /veh PRSS12 (11739890_at) / RFU BIN1 (11741810_x_at) / Fold change /veh BIN1 (11741810_x_at) / RFU WNT11 (11732464_a_at) / Fold change /veh WNT11 (11732464_a_at) / RFU C10orf10 (11716521_a_at) / Fold change /veh C10orf10 (11716521_a_at) / RFU C5orf56 (11738089_at) / Fold change /veh C5orf56 (11738089_at) / RFU CYB561 (11721691_x_at) / Fold change /veh CYB561 (11721691_x_at) / RFU ANKRD19P (11752326_a_at) / Fold change /veh ANKRD19P (11752326_a_at) / RFU OR2T12 /// OR2T33 /// OR2T8 (11738714_s_at) / Fold change /veh OR2T12 /// OR2T33 /// OR2T8 (11738714_s_at) / RFU VCAN (11748164_a_at) / Fold change /veh VCAN (11748164_a_at) / RFU JSRP1 (11732532_at) / Fold change /veh JSRP1 (11732532_at) / RFU KRTAP10-11 (11738290_x_at) / Fold change /veh KRTAP10-11 (11738290_x_at) / RFU MYO3A (11730013_a_at) / Fold change /veh MYO3A (11730013_a_at) / RFU EBF3 (11725865_a_at) / Fold change /veh EBF3 (11725865_a_at) / RFU CAMK2N1 (11719241_x_at) / Fold change /veh CAMK2N1 (11719241_x_at) / RFU C5orf56 (11738088_a_at) / Fold change /veh C5orf56 (11738088_a_at) / RFU OLFML3 (11715873_a_at) / Fold change /veh OLFML3 (11715873_a_at) / RFU LOC100653217 /// NTM (11731650_a_at) / Fold change /veh LOC100653217 /// NTM (11731650_a_at) / RFU MAPK11 (11762145_a_at) / Fold change /veh MAPK11 (11762145_a_at) / RFU FIZ1 (11724087_x_at) / Fold change /veh FIZ1 (11724087_x_at) / RFU OASL (11726364_x_at) / Fold change /veh OASL (11726364_x_at) / RFU SOX15 (11748057_x_at) / Fold change /veh SOX15 (11748057_x_at) / RFU CD79A (11719716_a_at) / Fold change /veh CD79A (11719716_a_at) / RFU HIST1H1D (11736915_at) / Fold change /veh HIST1H1D (11736915_at) / RFU CASKIN2 (11723855_a_at) / Fold change /veh CASKIN2 (11723855_a_at) / RFU LOC730098 (11760151_x_at) / Fold change /veh LOC730098 (11760151_x_at) / RFU OR4N2 (11742367_at) / Fold change /veh OR4N2 (11742367_at) / RFU PRRT2 (11749266_a_at) / Fold change /veh PRRT2 (11749266_a_at) / RFU SNX32 (11753110_a_at) / Fold change /veh SNX32 (11753110_a_at) / RFU CDHR5 (11726645_a_at) / Fold change /veh CDHR5 (11726645_a_at) / RFU RCAN1 (11760418_a_at) / Fold change /veh RCAN1 (11760418_a_at) / RFU FAM167A (11723789_a_at) / Fold change /veh FAM167A (11723789_a_at) / RFU FAM26E (11764081_at) / Fold change /veh FAM26E (11764081_at) / RFU ISYNA1 (11749810_s_at) / Fold change /veh ISYNA1 (11749810_s_at) / RFU ACY1 (11761880_at) / Fold change /veh ACY1 (11761880_at) / RFU 11764098_at / Fold change /veh 11764098_at / RFU SAMD14 (11745864_x_at) / Fold change /veh SAMD14 (11745864_x_at) / RFU NPB (11741838_a_at) / Fold change /veh NPB (11741838_a_at) / RFU TMPRSS6 (11731388_a_at) / Fold change /veh TMPRSS6 (11731388_a_at) / RFU KRTAP10-2 (11738614_at) / Fold change /veh KRTAP10-2 (11738614_at) / RFU ARHGAP8 /// PRR5-ARHGAP8 (11727945_x_at) / Fold change /veh ARHGAP8 /// PRR5-ARHGAP8 (11727945_x_at) / RFU KRTAP5-7 /// NADSYN1 (11734609_at) / Fold change /veh KRTAP5-7 /// NADSYN1 (11734609_at) / RFU RASL12 (11751679_a_at) / Fold change /veh RASL12 (11751679_a_at) / RFU CDKN2B (11736163_a_at) / Fold change /veh CDKN2B (11736163_a_at) / RFU PRF1 (11729649_at) / Fold change /veh PRF1 (11729649_at) / RFU, ZNF638 /// ZNF638-IT1 / Fold change vs veh, ZNF638 /// ZNF638-IT1 / RFU, PANK3 / Fold change vs veh, PANK3 / RFU, SH3YL1 / Fold change vs veh, SH3YL1 / RFU, ZEB2 / Fold change vs veh, ZEB2 / RFU, NRIP1 / Fold change vs veh, NRIP1 / RFU, PTTG1IP / Fold change vs veh, PTTG1IP / RFU, CAPN2 / Fold change vs veh, CAPN2 / RFU, MED14 / Fold change vs veh, MED14 / RFU, SNORA58 / Fold change vs veh, SNORA58 / RFU, C1orf63 / Fold change vs veh, C1orf63 / RFU, LRRFIP1 / Fold change vs veh, LRRFIP1 / RFU, NDUFAF7 / Fold change vs veh, NDUFAF7 / RFU, SLC12A2 / Fold change vs veh, SLC12A2 / RFU, IBTK / Fold change vs veh, IBTK / RFU, ESF1 / Fold change vs veh, ESF1 / Fold change vs veh, TMEM50B / RFU, TAOK1 / Fold change vs veh, TAOK1 / RFU, ACBD3 / Fold change vs veh, ACBD3 / RFU, TMA16 / Fold change vs veh, TMA16 / RFU, RWDD3 / Fold change vs veh, RWDD3 / RFU, BCAT1 / Fold change vs veh, BCAT1 / RFU, EDEM3 / Fold change vs veh, EDEM3 / RFU, TMEM33 / Fold change vs veh, TMEM33 / RFU, WDR75 / Fold change vs veh, WDR75 / RFU, AHCTF1 / Fold change vs veh, AHCTF1 / RFU, TFRC / Fold change vs veh, TFRC / RFU, ZDHHC17 / Fold change vs veh, ZDHHC17 / RFU, NOM1 / Fold change vs veh, NOM1 / RFU, ARL8B / Fold change vs veh, ARL8B / RFU, ZBTB11 / Fold change vs veh, ZBTB11 / RFU, TAMM41 / Fold change vs veh, TAMM41 / RFU, KIAA1704 /// LOC100996395 / Fold change vs veh, KIAA1704 /// LOC100996395 / RFU, ING1 / Fold change vs veh, ING1 / RFU, TRMT61B / Fold change vs veh, TRMT61B / RFU, FUBP3 / Fold change vs veh, FUBP3 / RFU, TP53 / Fold change vs veh, TP53 / RFU, TNKS2 / Fold change vs veh, TNKS2 / RFU, ZFP14 / Fold change vs veh, ZFP14 / RFU, ACTR2 / Fold change vs veh, ACTR2 / RFU, PPP3R1 / Fold change vs veh, PPP3R1 / RFU, PIK3R1 / Fold change vs veh, PIK3R1 / RFU, HNRNPA1 / Fold change vs veh, HNRNPA1 / RFU, RNF170 / Fold change vs veh, RNF170 / RFU, ZNF28 / Fold change vs veh, ZNF28 / RFU, RNGTT / Fold change vs veh, RNGTT / RFU, OGT / Fold change vs veh, OGT / RFU, BRD1 / Fold change vs veh, BRD1 / RFU, MARS / Fold change vs veh, MARS / RFU, ZNF655 / Fold change vs veh, ZNF655 / RFU, FAHD1 / Fold change vs veh, FAHD1 / RFU, BDP1 / Fold change vs veh, BDP1 / RFU, LRRCC1 / Fold change vs veh, LRRCC1 / RFU, ARID1A / Fold change vs veh, ARID1A / RFU, ZNF146 / Fold change vs veh, ZNF146 / RFU, ZNF330 / Fold change vs veh, ZNF330 / RFU, GPN3 / Fold change vs veh, GPN3 / RFU, C9orf123 / Fold change vs veh, C9orf123 / RFU, N4BP2L2 / Fold change vs veh, N4BP2L2 / RFU, ARFIP1 / Fold change vs veh, ARFIP1 / RFU, FAM179B / Fold change vs veh, FAM179B / RFU, BCL10 / Fold change vs veh, BCL10 / RFU, UHRF1BP1L / Fold change vs veh, UHRF1BP1L / RFU, BET1 / Fold change vs veh, BET1 / RFU, CNOT2 / Fold change vs veh, CNOT2 / RFU, ZNF268 / Fold change vs veh, ZNF268 / Fold change vs veh, ZNF507 / RFU, DGCR2 / Fold change vs veh, DGCR2 / RFU, WDSUB1 / Fold change vs veh, WDSUB1 / Fold change vs veh, HSP90B1 /// MIR3652 / RFU, ADSS / Fold change vs veh, ADSS / RFU, GK / Fold change vs veh, GK / RFU, ZNF148 / Fold change vs veh, ZNF148 / RFU, TAF9 / Fold change vs veh, TAF9 / RFU, SLC1A5 / Fold change vs veh, SLC1A5 / RFU, SLMO2 / Fold change vs veh, SLMO2 / RFU, ABCC4 / Fold change vs veh, ABCC4 / RFU, LOC101060439 /// RAP1B / Fold change vs veh, LOC101060439 /// RAP1B / RFU, RFX7 / Fold change vs veh, RFX7 / RFU, GTPBP10 / Fold change vs veh, GTPBP10 / RFU, CNEP1R1 / Fold change vs veh, CNEP1R1 / RFU, BIVM-ERCC5 /// ERCC5 / Fold change vs veh, BIVM-ERCC5 /// ERCC5 / RFU, ILF3 / Fold change vs veh, ILF3 / RFU 11762660_at / Fold change /veh 11762660_at / RFU VCAN (11757783_s_at) / Fold change /veh VCAN (11757783_s_at) / RFU DDX43 (11728927_at) / Fold change /veh DDX43 (11728927_at) / RFU KRT8 (11758188_x_at) / Fold change /veh KRT8 (11758188_x_at) / RFU NKD1 (11759106_at) / Fold change /veh NKD1 (11759106_at) / RFU SRD5A1 (11742802_a_at) / Fold change /veh SRD5A1 (11742802_a_at) / RFU TPSAB1 /// TPSB2 (11721975_s_at) / Fold change /veh TPSAB1 /// TPSB2 (11721975_s_at) / RFU GSTM3 (11746129_a_at) / Fold change /veh GSTM3 (11746129_a_at) / RFU IL23R (11737362_x_at) / Fold change /veh IL23R (11737362_x_at) / RFU TMEM51 (11727254_a_at) / Fold change /veh TMEM51 (11727254_a_at) / RFU PIWIL2 (11732686_x_at) / Fold change /veh PIWIL2 (11732686_x_at) / RFU ORM1 (11744905_x_at) / Fold change /veh ORM1 (11744905_x_at) / RFU CCDC152 (11743942_at) / Fold change /veh CCDC152 (11743942_at) / RFU ECM1 (11717891_a_at) / Fold change /veh ECM1 (11717891_a_at) / RFU IL23R (11748794_a_at) / Fold change /veh IL23R (11748794_a_at) / RFU TNFAIP8L3 (11732012_x_at) / Fold change /veh TNFAIP8L3 (11732012_x_at) / RFU MBOAT4 (11741988_at) / Fold change /veh MBOAT4 (11741988_at) / RFU 11764193_at / Fold change /veh 11764193_at / RFU TMEM53 (11763286_at) / Fold change /veh TMEM53 (11763286_at) / RFU MAGEB2 (11727129_at) / Fold change /veh MAGEB2 (11727129_at) / RFU TMEM200A (11744735_a_at) / Fold change /veh TMEM200A (11744735_a_at) / RFU CCDC152 (11751479_a_at) / Fold change /veh CCDC152 (11751479_a_at) / RFU FAM211A (11726209_a_at) / Fold change /veh FAM211A (11726209_a_at) / RFU RGS16 (11746705_a_at) / Fold change /veh RGS16 (11746705_a_at) / RFU VCAN (11755009_s_at) / Fold change /veh VCAN (11755009_s_at) / RFU RHOB (11743442_s_at) / Fold change /veh RHOB (11743442_s_at) / RFU RGS16 (11720943_a_at) / Fold change /veh RGS16 (11720943_a_at) / RFU RGS16 (11720944_at) / Fold change /veh RGS16 (11720944_at) / RFU, VPS4B / Fold change vs veh, VPS4B / RFU, CREB1 / Fold change vs veh, CREB1 / RFU, DNAJC13 / Fold change vs veh, DNAJC13 / RFU, GNAQ / Fold change vs veh, GNAQ / RFU, CDK5R1 / Fold change vs veh, CDK5R1 / RFU, ZRANB3 / Fold change vs veh, ZRANB3 / RFU, CUL4A / Fold change vs veh, CUL4A / RFU, CCNY / Fold change vs veh, CCNY / RFU, UFL1 / Fold change vs veh, UFL1 / RFU, COG3 / Fold change vs veh, COG3 / RFU, DIAPH2 / Fold change vs veh, DIAPH2 / RFU, SKA2 / Fold change vs veh, SKA2 / RFU, AFF3 / Fold change vs veh, AFF3 / RFU, LMF1 / Fold change vs veh, LMF1 / RFU, IPO11 / Fold change vs veh, IPO11 / RFU, DFFB / Fold change vs veh, DFFB / RFU, FOXP1 / Fold change vs veh, FOXP1 / RFU, CARD8 / Fold change vs veh, CARD8 / RFU, STRN3 / Fold change vs veh, STRN3 / RFU, ADK / Fold change vs veh, ADK / RFU, RASSF2 / Fold change vs veh, RASSF2 / RFU, WIPF1 / Fold change vs veh, WIPF1 / RFU, LARP1B / Fold change vs veh, LARP1B / RFU, RASA1 / Fold change vs veh, RASA1 / RFU, RB1 / Fold change vs veh, RB1 / RFU, PPFIA1 / Fold change vs veh, PPFIA1 / RFU, MAT2A / Fold change vs veh, MAT2A / RFU, CCT5 / Fold change vs veh, CCT5 / RFU, WDR92 / Fold change vs veh, WDR92 / RFU, CUX1 / Fold change vs veh, CUX1 / RFU, TTC7A / Fold change vs veh, TTC7A / RFU, TMEM135 / Fold change vs veh, TMEM135 / RFU, DEPTOR / Fold change vs veh, DEPTOR / RFU, CPM / Fold change vs veh, CPM / RFU, DNAJB6 / Fold change vs veh, DNAJB6 / RFU, CACNA2D3 / Fold change vs veh, CACNA2D3 / RFU, DTX4 / Fold change vs veh, DTX4 / RFU, TFCP2 / Fold change vs veh, TFCP2 / RFU, GMCL1 /// GMCL1P1 / Fold change vs veh, GMCL1 /// GMCL1P1 / RFU, AEBP2 / Fold change vs veh, AEBP2 / RFU, SNHG1 /// SNORD22 /// SNORD25 /// SNORD26 /// SNORD27 /// SNORD28 /// SNORD29 /// SNORD31 / Fold change vs veh, SNHG1 /// SNORD22 /// SNORD25 /// SNORD26 /// SNORD27 /// SNORD28 /// SNORD29 /// SNORD31 / Fold change (Aza/veh), C12orf56 (ProbeSet 11735607_a_at) / Fold change (ACY-1035/veh), C12orf56 (ProbeSet 11735607_a_at) / Fold change (Aza/veh), FGFR1OP (ProbeSet 11751329_s_at) / Fold change (ACY-1035/veh), FGFR1OP (ProbeSet 11751329_s_at) / Fold change (Aza/veh), VPS36 (ProbeSet 11739960_a_at) / Fold change (ACY-1035/veh), VPS36 (ProbeSet 11739960_a_at) / RFU SYPL1 (11715823_x_at) / Fold change /veh SYPL1 (11715823_x_at) / RFU IGFBP7 (11715501_s_at) / Fold change /veh IGFBP7 (11715501_s_at) / RFU REEP3 (11722064_at) / Fold change /veh REEP3 (11722064_at) / RFU IGLL1 (11728026_x_at) / Fold change /veh IGLL1 (11728026_x_at): dose or concentration left out as unconfirmed
Conditions: ProbeSet 11750457_a_at; LIST B

Nc1ccc(-c2cccs2)cc1NC(=O)c1ccc2c(c1)cc(C1CC1)n2CCN1CCOCC1 [ACY-1035]
RFU, GTPBP10: 30.83 RFU
